The values below come from patent US20240252506A1 (Hoffmann-La Roche Inc., priority 2021, published 2024).

Molecules are shown by their SMILES. Converted amounts (≈) assume the structure as drawn. Where a name gives a salt, the structure may show the parent alone.

For orientation: MIC means the least concentration at which growth counts as inhibited.

For the first experiment, the system named is Escherichia coli ATCC 25922. As to the kind of experiment: Minimal Inhibitory Concentration (MIC) determination, broth microdilution (CLSI M07-A10). It counts as cell-based. To be noted: Escherichia coli, ATCC25922, strain Escherichia coli ATCC 25922, 18-24 hours at 35±2° C., lowest concentration for complete growth inhibition (no visible growth), read-out: Escherichia coli growth inhibition MIC. As for the experimental part: Minimal Inhibitory Concentration (MIC) Determination:
The MIC of antibacterial compounds against multiple species and strains was determined using the broth microdilution method according to M07-A10 Clinical and Laboratory Standards Institute (CLSI) guidelines, using the appropriate broth medium. In short, the compound plates were prepared by dispensing 100 μL of each stock solution in the first well of a 96 well microtiter plate (MTP) at a concentration 100-fold higher than the final concentration desired in broth. Eleven serial 2-fold dilutions of the highest concentration were made in DMSO for new compounds and in water (or appropriate solution) for reference compounds [2]. 1 μL of each well was transferred in a new MTP, which served as the test plate by subsequent inoculation. This bacterial suspension was prepared from strains that were first sub-cultured on agar plates and incubated for 18-24 hours as appropriate. Following incubation, the inoculum was prepared from isolated colonies and adjusted to 0.5 McFarland turbidity standard (1 to 2×10^8 Colony Forming Units (CFU)/mL) in 0.9% saline. The bacterial suspension was then diluted 1:200 in appropriate sterile medium and within 15 minutes 100 μL/well were dispensed. Negative controls (lack of bacterial cells) and growth control wells (lack of compound) were included in all plates. MTPs were incubated for 18-24 hours at 35±2° C. in ambient air. The MIC value of each compound, expressed as μg/mL, was determined as the lowest concentration required for complete growth inhibition (no visible growth). • [1] CLSI (2015) Methods for dilution antimicrobial susceptibility tests for bacteria that grow aerobically; Approved Standard, Tenth Edition. CLSI Document M7-A10 (ISBN 1-56238-987-4). Wayne, PA: Clinical and Laboratory Standards Institute, 19087, USA. • [2] CLSI (2017) Performance Standards for Antimicrobial Susceptibility Testing; Twenty-Fifth Informational Supplement. CLSI Document M100-S27, CLSI, Wayne, Pennsylvania 19087, USA.
Table 1 provides the Minimal Inhibitory Concentrations (MIC) in micrograms per millilitre of the compounds of present invention obtained against the strain Escherichia coli ATCC 25922.
In general terms: Broth dilution looks for growth in wells or tubes with falling amounts of substance.
With `CNCc1nc2cc3c(c(F)c2o1)CC(CN1CCC2(CC1)CN(c1ccc4c(n1)NC(=O)CO4)C(=O)O2)C3` (single isomer, unassigned) [Example 136, 6-[8-[[8-Fluoro-2-(methylaminomethyl)-6,7-dihydro-5H-cyclopenta[f][1,3]benzoxazol-6-yl]methyl]-2-oxo-1-oxa-3,8-diazaspiro[4.5]decan-3-yl]-4H-pyrido[3,2-b][1,4]oxazin-3-one], the MIC is 1 mg/L (≈ 1.86 µM).

Consider `O=C1COc2ncc(N3CC4(CCN(CC5Cc6cc7nc([C@@H]8C[C@@H](O)CN8)oc7c(F)c6C5)CC4)OC3=O)nc2N1` (single isomer, unassigned) [Example 141], for which the minimal inhibitory concentration (MIC) came to 0.5 mg/L (≈ 0.863 µM).

Regarding `CN[C@@H](CO)c1nc2cc3c(c(F)c2o1)CC(CN1CCC2(CC1)CN(c1cnc4c(n1)NC(=O)CO4)C(=O)O2)C3` (single isomer, unassigned) [Example 145], the MIC turned out to be 0.5 mg/L (≈ 0.881 µM).

As for `CN(C)CC(=O)N(C)CCn1nnc2c(F)c3c(c(F)c21)CC(CN1CCC2(CC1)CN(c1cnc4c(n1)NC(=O)CO4)C(=O)O2)C3` (single isomer, unassigned) [Example 152, N-[2-[4,8-difluoro-6-[[2-oxo-3-(3-oxo-4H-pyrazino[2,3-b][1,4]oxazin-6-yl)-1-oxa-3,8-diazaspiro[4.5]decan-8-yl]methyl]-6,7-dihydro-5H-cyclopenta[f]benzotriazol-1-yl]ethyl]-2-(dimethylamino)-N-methyl-acetamide], the MIC was 2 mg/L (≈ 3.05 µM).

Consider `CC(=O)N(C)CCn1nnc2c(F)c3c(c(F)c21)CC(CN1CCC2(CC1)CN(c1cnc4c(n1)NC(=O)CO4)C(=O)O2)C3` (single isomer, unassigned) [Example 156, N-[2-[4,8-difluoro-6-[[2-oxo-3-(3-oxo-4H-pyrazino[2,3-b][1,4]oxazin-6-yl)-1-oxa-3,8-diazaspiro[4.5]decan-8-yl]methyl]-6,7-dihydro-5H-cyclopenta[f]benzotriazol-1-yl]ethyl]-N-methyl-acetamide], for which the MIC came out at 8 mg/L (≈ 13.1 µM).

Consider `CN(CCn1nnc2c(F)c3c(c(F)c21)CC(CN1CCC2(CC1)CN(c1cnc4c(n1)NC(=O)CO4)C(=O)O2)C3)C(=O)CN` (single isomer, unassigned) [Example 166, 2-Amino-N-methyl-N-[2-[4,8-difluoro-6-[[2-oxo-3-(3-oxo-4H-pyrazino[2,3-b][1,4]oxazin-6-yl)-1-oxa-3,8-diazaspiro[4.5]decan-8-yl]methyl]-6,7-dihydro-5H-cyclopenta[f]benzotriazol-1-yl]ethyl]acetamide], for which the minimum inhibitory concentration (MIC) stood at 1 mg/L (≈ 1.6 µM).

Regarding `Cc1nc2c(F)c3c(c(F)c2[nH]1)CC(CNCCC1CN(c2cnc4c(n2)NC(=O)CO4)C(=O)O1)C3` (stereo not drawn) [Example 1, 6-[5-[2-[(4,8-Difluoro-2-methyl-3,5,6,7-tetrahydrocyclopenta[f]benzimidazol-6-yl)methylamino]ethyl]-2-oxo-oxazolidin-3-yl]-4H-pyrazino[2,3-b][1,4]oxazin-3-one], the minimal inhibitory concentration (MIC) is 0.5 mg/L (≈ 1 µM).

The experiment is the same for the next values; noted with them: strain Escherichia coli ATCC 25922, 18-24 hours at 35±2° C., lowest concentration for complete growth inhibition (no visible growth).
Regarding `CNCc1nc2cc3c(c(F)c2o1)CC(CN1CCC2(CC1)CN(c1ccc4c(n1)NC(=O)CO4)C(=O)O2)C3` (single isomer, unassigned) [Example 137, 6-[8-[[8-Fluoro-2-(methylaminomethyl)-6,7-dihydro-5H-cyclopenta[f][1,3]benzoxazol-6-yl]methyl]-2-oxo-1-oxa-3,8-diazaspiro[4.5]decan-3-yl]-4H-pyrido[3,2-b][1,4]oxazin-3-one], the “Escherichia coli growth inhibition MIC” value worked out at 0.5 mg/L.

In the case of `CN(C)CC(=O)N(C)CCn1nnc2c(F)c3c(c(F)c21)CC(CN1CCC2(CC1)CN(c1cnc4c(n1)NC(=O)CO4)C(=O)O2)C3` (single isomer, unassigned) [Example 153, N-[2-[4,8-difluoro-6-[[2-oxo-3-(3-oxo-4H-pyrazino[2,3-b][1,4]oxazin-6-yl)-1-oxa-3,8-diazaspiro[4.5]decan-8-yl]methyl]-6,7-dihydro-5H-cyclopenta[f]benzotriazol-1-yl]ethyl]-2-(dimethylamino)-N-methyl-acetamide], the “Escherichia coli growth inhibition MIC” value is 2 mg/L.

Take `CC(=O)N(C)CCn1nnc2c(F)c3c(c(F)c21)CC(CN1CCC2(CC1)CN(c1cnc4c(n1)NC(=O)CO4)C(=O)O2)C3` (single isomer, unassigned) [Example 157, N-[2-[4,8-difluoro-6-[[2-oxo-3-(3-oxo-4H-pyrazino[2,3-b][1,4]oxazin-6-yl)-1-oxa-3,8-diazaspiro[4.5]decan-8-yl]methyl]-6,7-dihydro-5H-cyclopenta[f]benzotriazol-1-yl]ethyl]-N-methyl-acetamide]: the “Escherichia coli growth inhibition MIC” value is 4 mg/L.

As for `CN(CCn1nnc2c(F)c3c(c(F)c21)CC(CN1CCC2(CC1)CN(c1cnc4c(n1)NC(=O)CO4)C(=O)O2)C3)C(=O)CN` (single isomer, unassigned) [Example 167, 2-Amino-N-methyl-N-[2-[4,8-difluoro-6-[[2-oxo-3-(3-oxo-4H-pyrazino[2,3-b][1,4]oxazin-6-yl)-1-oxa-3,8-diazaspiro[4.5]decan-8-yl]methyl]-6,7-dihydro-5H-cyclopenta[f]benzotriazol-1-yl]ethyl]acetamide], the “Escherichia coli growth inhibition MIC” value stood at 1 mg/L.

Staying with this experiment, now noted: strain Escherichia coli ATCC 25922, 18-24 hours at 35±2° C., lowest concentration for complete growth inhibition (no visible growth), dihydrochloride.
As to `NCCn1nc2cc3c(c(F)c2n1)CC(CN1CCC2(CC1)CN(c1ccc4c(n1)NC(=O)CO4)C(=O)O2)C3` (single isomer, unassigned) [Example 132, 6-[2-oxo-8-[[2-(2-aminoethyl)-8-fluoro-6,7-dihydro-5H-cyclopenta[f]benzotriazol-6-yl]methyl]-1-oxa-3,8-diazaspiro[4.5]decan-3-yl]-4H-pyrido[3,2-b][1,4]oxazin-3-one dihydrochloride], the “Escherichia coli growth inhibition MIC” value amounted to 0.25 mg/L.

In the case of `NCCn1nc2cc3c(c(F)c2n1)CC(CN1CCC2(CC1)CN(c1ccc4c(n1)NC(=O)CO4)C(=O)O2)C3` (single isomer, unassigned) [Example 133, 6-[2-oxo-8-[[2-(2-aminoethyl)-8-fluoro-6,7-dihydro-5H-cyclopenta[f]benzotriazol-6-yl]methyl]-1-oxa-3,8-diazaspiro[4.5]decan-3-yl]-4H-pyrido[3,2-b][1,4]oxazin-3-one dihydrochloride], the “Escherichia coli growth inhibition MIC” value came to 1 mg/L.

For the molecule `NCCn1nc2cc3c(c(F)c2n1)CC(CN1CCC2(CC1)CN(c1cnc4c(n1)NC(=O)CO4)C(=O)O2)C3` (single isomer, unassigned) [Example 134, 6-[2-oxo-8-[[2-(2-aminoethyl)-8-fluoro-6,7-dihydro-5H-cyclopenta[f]benzotriazol-6-yl]methyl]-1-oxa-3,8-diazaspiro[4.5]decan-3-yl]-4H-pyrazino[2,3-b][1,4]oxazin-3-one dihydrochloride], the “Escherichia coli growth inhibition MIC” value is 0.125 mg/L.

`NCCn1nc2cc3c(c(F)c2n1)CC(CN1CCC2(CC1)CN(c1cnc4c(n1)NC(=O)CO4)C(=O)O2)C3` (single isomer, unassigned) [Example 135, 6-[2-oxo-8-[[2-(2-aminoethyl)-8-fluoro-6,7-dihydro-5H-cyclopenta[f]benzotriazol-6-yl]methyl]-1-oxa-3,8-diazaspiro[4.5]decan-3-yl]-4H-pyrazino[2,3-b][1,4]oxazin-3-one dihydrochloride]: the “Escherichia coli growth inhibition MIC” value is not above 0.06 mg/L.

Regarding `NCCn1nc2cc(F)c3c(c2n1)CC(CN1CCC2(CC1)CN(c1ccc4c(n1)NC(=O)CO4)C(=O)O2)C3` (single isomer, unassigned) [Example 170, 6-[2-Oxo-8-[[2-(2-aminoethyl)-5-fluoro-7,8-dihydro-6H-cyclopenta[e]benzotriazol-7-yl]methyl]-1-oxa-3,8-diazaspiro[4.5]decan-3-yl]-4H-pyrido[3,2-b][1,4]oxazin-3-one dihydrochloride], the “Escherichia coli growth inhibition MIC” value amounted to 0.25 mg/L.

Take `NCCn1nc2cc(F)c3c(c2n1)CC(CN1CCC2(CC1)CN(c1ccc4c(n1)NC(=O)CO4)C(=O)O2)C3` (single isomer, unassigned) [Example 171, 6-[2-Oxo-8-[[2-(2-aminoethyl)-5-fluoro-7,8-dihydro-6H-cyclopenta[e]benzotriazol-7-yl]methyl]-1-oxa-3,8-diazaspiro[4.5]decan-3-yl]-4H-pyrido[3,2-b][1,4]oxazin-3-one dihydrochloride]: the “Escherichia coli growth inhibition MIC” value was not above 0.06 mg/L.

The same experiment, now with this note: strain Escherichia coli ATCC 25922, 18-24 hours at 35±2° C., lowest concentration for complete growth inhibition (no visible growth), hydrochloride.
With `C[C@H](N)Cn1nnc2c(F)c3c(c(F)c21)CC(CN1CCC2(CC1)CN(c1cnc4c(n1)NC(=O)CO4)C(=O)O2)C3.Cl` (single isomer, unassigned) [Example 131], the “Escherichia coli growth inhibition MIC” value is 0.125 mg/L.
